From US20240174690A1, “ANNULATED 2-AMINO-3-CYANO THIOPHENES AND DERIVATIVES FOR THE TREATMENT OF CANCER” (BOEHRINGER INGELHEIM INTERNATIONAL GMBH, priority 2021, published 2024)

Columns and labels:
[1] = Plasma protein binding assay (PPB), equilibrium dialysis, 10% FCS in PBS; format: in vitro ADME; details: bovine, read-out: PPB 10% FCS (% fu)
Outline: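 Test compound (1-10 μmol/L) in 10% FCS in PBS was dialysed for 3-5 h at 37° C versus PBS ± dextran across a semipermeable membrane. LC-MS of both compartments after protein precipitation gave Cserum and Cbuffer, from which the unbound fraction fu was derived.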

SAS cells = experiment: SAS CTG proliferation assay (120 h) (HNSCC, wt amplified); format: cell-based
Outline: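 Viability measured by CellTiter-Glo luminescence, normalized to DMSO wells, after 120 h compound treatment of SAS cells. Cells grown in DMEM:F12 plus 10% FCS at 300 cells per well, dosed the day after seeding. Four-parameter fit gives IC50.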

AsPC-1 cells = experiment: AsPC-1 CTG proliferation assay (120 h) (pancreatic cancer, G12D); format: cell-based; details: Homo sapiens, ASPC1
Outline: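 CellTiter-Glo luminescence, normalised to DMSO wells, measured viability after 120 h compound exposure. Cells were AsPC-1 pancreatic cancer (G12D) plated at 2000 per well in RPMI/10% FCS the day before dosing. IC50 derived by four-parameter regression.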

[2] = Metabolic (microsomal) stability assay, human liver microsomes (HLM); format: in vitro ADME; details: predicted clearance as percent of liver blood flow, 1 μM
Outline: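 LC-MS/MS tracked parent disappearance at 0, 5, 15, 30 and 60 min in NADPH-initiated incubations with 1 mg/mL human microsomal protein and 1 μM compound at 37°C, pH 7.5. First-order fits gave intrinsic clearance, which was scaled up and reported as % QH. NADPH-free controls were also run.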

SK-CO-1 cells = experiment: SK-CO-1 CTG proliferation assay (120 h) (CRC, G12V); format: cell-based; details: Homo sapiens; SK-CO-1 cells (CRC, G12V), CTG 120 h
Outline: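 Compound exposure lasted 120 h in KRAS G12V SK-CO-1 cells seeded overnight at 500 cells/well in 10% FCS EMEM. CellTiter-Glo RLU normalised to DMSO wells gave percent viability, and a four-parameter model fit yielded IC50.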

Row | Compound | fraction unbound [1] | IC50 (SAS cells) | IC50 (AsPC-1 cells) | HLM QH [2] | IC50 (SK-CO-1 cells)
1 | COCCNC(=O)c1ccn(-c2cc(O[C@@H](C)[C@@H]3CCCN3C)nc(-c3noc4c3CCC[C@@]43CCCc4sc(N)c(C#N)c43)n2)n1 [II-195] | 0.24 | 0.037 µM | 0.282 µM | 44% | 0.004 µM
2 | CO[C@H]1CCN(C)[C@@H]1[C@H](C)Oc1cc(-n2ccc(C(=O)N[C@@H](C)c3ccccn3)n2)nc(-c2noc3c2CCC[C@@]32CCCc3sc(N)c(C#N)c32)n1 [II-196] | 0.01 | 0.009 µM | 0.248 µM | 75% | 0.004 µM
3 | CO[C@H]1CCN(C)[C@@H]1[C@H](C)Oc1cc(-n2ccc(C(=O)N[C@@H]3CCOC3)n2)nc(-c2noc3c2CCC[C@@]32CCCc3sc(N)c(C#N)c32)n1 [II-197] | 0.04 | 0.008 µM | 0.226 µM | 69% | 0.004 µM
4 | CO[C@H]1CCN(C)[C@@H]1[C@H](C)Oc1cc(-n2ccc(C(=O)N[C@H]3CCOC3)n2)nc(-c2noc3c2CCC[C@@]32CCCc3sc(N)c(C#N)c32)n1 [II-198] | 0.06 | 0.008 µM | 0.143 µM | 63% | 0.003 µM
5 | CO[C@H]1CCN(C)[C@@H]1[C@H](C)Oc1cc(-n2ccc(C(=O)N(C)C3COC3)n2)nc(-c2noc3c2CCC[C@@]32CCCc3sc(N)c(C#N)c32)n1 [II-199] | 0.07 | 0.017 µM | 0.446 µM | 67% | 0.017 µM
6 | COCCNC(=O)c1ccn(-c2cc(O[C@@H](C)[C@@H]3[C@@H](OC)CCN3C)nc(-c3noc4c3CCC[C@@]43CCCc4sc(N)c(C#N)c43)n2)n1 [II-200] | 0.03 | 0.008 µM | 0.34 µM | 65% | 0.005 µM
7 | CO[C@H]1CCN(C)[C@@H]1[C@H](C)Oc1cc(-n2ccc(C(N)=O)n2)nc(-c2noc3c2CCC[C@@]32CCCc3sc(N)c(C#N)c32)n1 [II-201] | 0.07 | 0.02 µM | 0.651 µM | 41% | 0.009 µM
8 | C[C@H](Oc1cc(-n2cc3ccn([C@H]4CCOC4)c(=O)c3n2)nc(-c2noc3c2CCC[C@@]32CCCc3sc(N)c(C#N)c32)n1)[C@@H]1CCCN1C [II-202] | 0.05 | 0.021 µM | 0.38 µM | <24% | 0.006 µM
9 | C[C@H](Oc1cc(-n2cc3ccn([C@@H]4CCOC4)c(=O)c3n2)nc(-c2noc3c2CCC[C@@]32CCCc3sc(N)c(C#N)c32)n1)[C@@H]1CCCN1C [II-203] | 0.04 | 0.018 µM | 0.483 µM | <24% | 0.012 µM
10 | C[C@H](Oc1cc(-n2cc3ccn(C[C@H]4CCOC4)c(=O)c3n2)nc(-c2noc3c2CCC[C@@]32CCCc3sc(N)c(C#N)c32)n1)[C@@H]1CCCN1C [II-204] | 0.03 | 0.017 µM | 0.508 µM | <24% | 0.014 µM
11 | C[C@H](Oc1cc(-n2cc3ccn([C@@H](C)c4ccccn4)c(=O)c3n2)nc(-c2noc3c2CCC[C@@]32CCCc3sc(N)c(C#N)c32)n1)[C@@H]1CCCN1C [II-205] | 0.06 | 0.02 µM | 1.31 µM | <24% | 0.031 µM
12 | C[C@H](Oc1cc(-n2cc3ccn(C4CCOCC4)c(=O)c3n2)nc(-c2noc3c2CCC[C@@]32CCCc3sc(N)c(C#N)c32)n1)[C@@H]1CCCN1C [II-206] | 0.05 | 0.025 µM | 0.194 µM | <24% | 0.011 µM
13 | [2H]C([2H])([2H])N1C[C@H](F)C[C@H]1[C@H](C)Oc1cc(N2CCN(C([2H])([2H])[2H])C3(CC3)C2)nc(-c2noc3c2CCC[C@@]32CCCc3sc(N)c(C#N)c32)n1 [II-207] | 0.09 | 1.08 µM | 0.082 µM | 40% | 1.26 µM
14 | C[C@H](Oc1cc(-n2ccc(-c3cn(C4CCOCC4)nn3)n2)nc(-c2noc3c2CCC[C@@]32CCCc3sc(N)c(C#N)c32)n1)[C@@H]1CCCN1C [II-210] | 0.02 | 0.014 µM | 0.21 µM | <24% | 0.003 µM
15 | C[C@H](Oc1cc(-n2ccc(-c3cn([C@@H]4CCOC4)nn3)n2)nc(-c2noc3c2CCC[C@@]32CCCc3sc(N)c(C#N)c32)n1)[C@@H]1CCCN1C [II-211] | 0.02 | 0.017 µM | 0.297 µM | <24% | 0.004 µM
16 | C[C@H](Oc1cc(-n2ccc(-c3cn([C@H]4CCOC4)nn3)n2)nc(-c2noc3c2CCC[C@@]32CCCc3sc(N)c(C#N)c32)n1)[C@@H]1CCCN1C [II-212] | 0.05 | 0.019 µM | 0.17 µM | <24% | 0.004 µM
17 | C[C@H](Oc1cc(-n2ccc(-c3cn(CC4(C)COC4)nn3)n2)nc(-c2noc3c2CCC[C@@]32CCCc3sc(N)c(C#N)c32)n1)[C@@H]1CCCN1C [II-213] | 0.02 | 0.013 µM | 0.275 µM | <24% | 0.007 µM
